Results on 3 compounds are retold here after patent US6340560B1, “Aminopolycarboxylic acid chelating agent, heavy metal chelate compound thereof, photographic additive and processing method” (Fuji Photo Film Co., Ltd., priority 1996, dated 2002).

This data set is described as follows: Example 12: biodegradability, 302 Revised Zahn-Wellens test (OECD Chemical Test Guideline).

`CN(CCN(C)[C@@H](CC(=O)O)C(=O)O)[C@@H](CC(=O)O)C(=O)O` [Compound 32] showed a biodegradable of 70%.

Take `CN(CCN(C)[C@@H](CCC(=O)O)C(=O)O)[C@@H](CCC(=O)O)C(=O)O` [Compound 45]: the biodegradable is given as 70%.

For the compound `O=C(O)CN(CCN(CC(=O)O)CC(=O)O)CC(=O)O` [Ethylenediaminetetraacetic acid, reference compound], the “biodegradability (in words)” value is “scarcely biodegradable”.
